Measured values published in patent EP2153845A1, “Endoglin peptides, vaccines and methods for preparing the same” (Julius-Maximilians-Universität Würzburg, priority 2008, dated 2010).

Tests used:
[1] = test system: peripheral blood lymphocytes of melanoma patients; assay: human IFN-γ ELISPOT after in vitro peptide stimulation of PBL; assay type: cell-based; settings: for specific immune responses / T cell activity in vitro (IFN-γ ELISPOT): PBL of melanoma patients prestimulated in vitro with 10 µM peptide, Figs. 4 and 5; for specific responses in peripheral blood of melanoma patients in comparison to control experiments and parental peptides: IFN-γ ELISPOT, modified versus parental peptides, Fig. 5
Description: To extend the sensitivity of the ELISPOT assay, PBL were stimulated once in vitro before analysis (McCutcheon et al., 1997). At day 0, PBL were thawed or freshly isolated from peripheral blood and plated in a cell concentration of 1x10^6/ml and 5 ml/well in 6-well plates (Greiner GmbH, Frickenhausen, Germany) in X-vivo medium (Cambrex Biosciences, Verviers, Belgium) with 10% heat inactivated human AB serum in the presence of 10 µM peptide (GeneScript Corporation, Piscataway, New Jersey, USA). On day 1 and 4 40 U IL-2/ml (Proleukin, Chiron GmbH, Munich, Gemany) were added to the culture. The cultured cells were tested for reactivity in ELISPOT on day 7.
The human IFN-γ ELISPOT assay was used to quantify peptide epitope-specific IFN-γ-releasing effector cells as described in Berke et al. 2000. Nitrocellulose-bottomed 96-well plates (MultiScreen MAIP N45, Millipore GmbH, Schwalbach, Germany) were activated with 35% ethanol, washed with PBS and coated with anti-IFN-γ antibody (1-D1 K, Mabtech, Hamburg, Germany). The wells were washed and blocked by X-vivo medium before adding 1x10^4 stimulator T2 cells loaded with or without 10 µM peptide and 3x10^5, 1x10^5 or 3x10^4 effector cells. After incubation overnight the wells were washed before addition of biotinylated secondary antibody (7-B6-1-Biotin, Mabtech, Hamburg, Germany). The plates were incubated for 2 h, washed, and streptavidine-enzyme conjugate (Streptavidin-ALP-PQ, Mabtech, Hamburg, Germany) was added. Incubation at room temperature for 1 h was followed by addition of enzyme substrate NBT/BCIP (Mabtech, Hamburg, Germany). The reaction was stopped by washing with tap water upon the appearance of dark purple spots. Spots were counted using the ImmunoSpot Series 2.0 Analyzer (CTL Cellular Technology Ltd., Schwäbisch Gmünd, Germany). The peptide-specific CTL frequency was calculated from the numbers of spot-forming cells. All assays were performed in duplicates. Responders were defined as having an average number of > 25 antigen-specific spots per 10^5 Cells (Spots with peptide - Spots without peptide).

[2] = test system: HLA-A2/k^b transgenic mice; assay: immunization of mice and analysis of immune responses by murine IFN-γ ELISPOT; assay type: in vivo; settings: Fig. 6; for T cell IFN-γ responses after immunization of mice: HLA-A2/k^b transgenic mice vaccinated with peptides and incomplete Freund's adjuvant, spleen cells in ELISPOT; for immune responses in the mouse model in comparison to control experiments and parental epitopes: HLA-A2/k^b transgenic mice, modified versus parental peptides
Description: HLA-A2/k^b transgenic mice (deposited by Linda A. Sherman at MMRCC, University of North Carolina, Chapel Hill, USA) were immunized with a mixture of 5-6 CD105 peptides (5 µg/peptide) and incomplete Freund's adjuvant 7 times once weekly. Spleen cells were analyzed in a murine IFN-γ ELISPOT after in vitro stimulation. Cells were stimulated for six days with 200 U IL-2/ml and 10 µM peptide loaded, mitomycin C treated LPS blasts, generated by stimulation of HLA-A2k^b spleen cells with 25 µg/ml LPS (Sigma-Aldrich, Taufkirchen, Germany) and 7 µg/ml dextran sulfate for three days. Subsequently 3x10^5, 1x10^5, and 0.3x10^5 spleen cells were seeded with or without 10 µM peptide in RPMI 1640/10% FCS in duplicates in nitrocellulose-bottomed 96-well plates (MultiScreen MAIP N45, Millipore GmbH) coated with an IFN-γ specific coating antibody (Mabtech) and blocked with cell culture medium and incubated overnight. The development of the murine IFN-γ ELISPOT was done as described for the human ELISPOT, with the exception that PBS/0.05% Tween 20 was used as washing buffer and the biotinylated anti-mouse IFN-γ antibody (Mabtech, diluted in PBS/1% BSA) as detection antibody. Table 1: Sequence listing

[3] = molecular target: T1, human leukocyte antigen A2 (HLA-A2) on the acid-stripped HLA-A2 positive cell line JY (human); assay: competitive binding assay vs fluorescein-labeled reference peptide on acid-stripped HLA-A2 positive JY cells, flow cytometry
T1 construct: whole, on cells; Empty, acid-stripped HLA-A2 on JY cells; also called HLA-A*0201

[4] = molecular target: T1, human leukocyte antigen A2 (HLA-A2) on …; assay: competitive binding assay on acid-stripped JY cells, flow cytometry

SEQ ID NO: 1 (ALLLASCSL)
specific immune responses / T cell activity in vitro (IFN-γ ELISPOT) [1]: induce T cell activity in vitro very efficiently

SEQ ID NO: 3 (LILQGPPYV)
T cell IFN-γ responses after immunization of mice [2]: high T cell IFN-γ responses | specific immune responses / T cell activity in vitro (IFN-γ ELISPOT) [1]: induce T cell activity in vitro very efficiently

SEQ ID NO: 7 (SVSEFLLQL)
T cell IFN-γ responses after immunization of mice [2]: high T cell IFN-γ responses | specific immune responses / T cell activity in vitro (IFN-γ ELISPOT) [1]: induce T cell activity in vitro very efficiently

SEQ ID NO: 8 (LLHFYTVPI)
T cell IFN-γ responses after immunization of mice [2]: high T cell IFN-γ responses | specific immune responses / T cell activity in vitro (IFN-γ ELISPOT) [1]: induce T cell activity in vitro very efficiently

SEQ ID NO: 10 (LLTAALWYI)
T cell IFN-γ responses after immunization of mice [2]: high T cell IFN-γ responses | specific immune responses / T cell activity in vitro (IFN-γ ELISPOT) [1]: induce T cell activity in vitro very efficiently

SEQ ID NO: 12 (SLVASFVEV)
T cell IFN-γ responses after immunization of mice [2]: high T cell IFN-γ responses | immune responses in the mouse model in comparison to control experiments and parental epitopes [2]: enhanced immune responses | specific responses in peripheral blood of melanoma patients in comparison to control experiments and parental peptides [1]: multiplied | specific immune responses / T cell activity in vitro (IFN-γ ELISPOT) [1]: induce T cell activity in vitro very efficiently

SEQ ID NO: 15 (FLIGALLTV)
T cell IFN-γ responses after immunization of mice [2]: high T cell IFN-γ responses | immune responses in the mouse model in comparison to control experiments and parental epitopes [2]: enhanced immune responses | specific responses in peripheral blood of melanoma patients in comparison to control experiments and parental peptides [1]: multiplied | specific immune responses / T cell activity in vitro (IFN-γ ELISPOT) [1]: induce T cell activity in vitro very efficiently

SEQ ID NO: 16 (LLTAALWYV)
T cell IFN-γ responses after immunization of mice [2]: high T cell IFN-γ responses | immune responses in the mouse model in comparison to control experiments and parental epitopes [2]: enhanced immune responses | specific responses in peripheral blood of melanoma patients in comparison to control experiments and parental peptides [1]: multiplied | specific immune responses / T cell activity in vitro (IFN-γ ELISPOT) [1]: induce T cell activity in vitro very efficiently

B1: hCD105 482-490 (483L, 490V) (peptide)
peptide: SLSEFLLQV
notes: also called AA 483: leucine AA 490: valine
IC50 [3]: ≤ 3.5 µM

LLHFYTVPV (also called AA541: valine) [hCD105 533-541 (541V)]
IC50 [3]: ≤ 3.5 µM

B2: hCD105 533-541 (peptide)
peptide: LLHFYTVPI
notes: Synthetic nonamer selected from human CD105 (endoglin); also called parental peptide
binding result [4]: binds

FLIGALLTV (also called AA 608: valine) [hCD105 600-608 (608V)]
IC50 [3]: ≤ 3.5 µM

B3: hCD105 600-608 (peptide)
peptide: FLIGALLTA
notes: as for B2
binding result [4]: binds

LLTAALWYV (also called AA 613: valine) [hCD105 605-613 (613V)]
IC50 [3]: ≤ 3.5 µM

B4: hCD105 605-613 (peptide)
peptide: LLTAALWYI
notes: as for B2
binding result [4]: binds

B5: hCD105 11-19 (peptide)
peptide: ALLLASCSL
notes: as for B2
binding result [4]: binds

B6: hCD105 61-69 (peptide)
peptide: ILEVHVLFL
notes: as for B2
binding result [4]: binds

LLLQGPPYV (also called AA 252: leucine) [hCD105 251-259 (252L)]
IC50 [3]: ≤ 3.5 µM

B7: hCD105 251-259 (peptide)
peptide: LILQGPPYV
notes: as for B2
binding result [4]: binds

B8: hCD105 298-306 (peptide)
peptide: GLLGEARML
notes: as for B2
binding result [4]: binds

B9: hCD105 309-317 (peptide)
peptide: SIVASFVEL
notes: as for B2
binding result [4]: binds

B10: hCD105 419-427 (peptide)
peptide: SMISNEAVV
notes: as for B2
binding result [4]: binds

B11: hCD105 482-490 (peptide)
peptide: SVSEFLLQL
notes: as for B2
binding result [4]: binds

B12: hCD105 309-317 (310L, 317V) (peptide)
peptide: SLVASFVEV
notes: also called AA 310: leucine AA 317: valine
IC50 [3]: ≤ 3.5 µM
